Source: US20100159093A1, “METHOD OF TREATING FOODSTUFF” (priority 2008, published 2010)

Experiments:
[1] = tested on: bacteria producing phospholipase; assay: Number of phospholipase-producing bacteria (aerobic cultivation) in raw milk under nitrogen gas; format: cell-based
Method: (§1) With the device shown in FIG. 1, the effect of nitrogen gas on the natural microflora in raw milk (volume approximately 125 ml) was examined by replacing the air (control) in an open vessel (volume approximately 250 ml) at a constant temperature, with a flow-through of 100% nitrogen gas (purity 99.999%, manufacturer AGA) at two different flow-through rates: N1=120 ml/min, N2=40 ml/min.
The temperature of the raw milk in the sample bottles was adjusted by means of the thermostat (14) of the water bath to bring the temperature of the milk to 6.0° C., 7.0° C. or 12.0° C. The temperature variation in the vessel was less than ±0.1° C.
The effect of nitrogen gas on the growth of the microflora in a raw milk sample at 12.0° C. Two flow-through rates of the nitrogen gas were used in the study: (▴) 40 ml/min and ([…]) 120 ml/min. […] The following bacterial levels were determined in the samples:
FIGS. 7A-C show the effect, in three different samples of raw milk (samples A, B and C), of nitrogen gas at 6.0° C. on the number of the bacteria which produce phospholipase. Two flow-through rates of the nitrogen gas were used in the study: (▴) 40 ml/min, i.e. the N2 environment, and ([…]) 120 ml/min, i.e. the N1 environment.

anaerobic microbes = assay: Growth of anaerobically cultivated bacteria in raw milk under nitrogen gas; format: cell-based; conditions: 12.0° C., N1 environment (120 ml/min), Example 5, FIG. 5H
Method: With the device shown in FIG. 1, the effect of nitrogen gas on the natural microflora in raw milk (volume approximately 125 ml) was examined by replacing the air (control) in an open vessel (volume approximately 250 ml) at a constant temperature, with a flow-through of 100% nitrogen gas (purity 99.999%, manufacturer AGA) at two different flow-through rates: N1=120 ml/min, N2=40 ml/min. The temperature of the raw milk in the sample bottles was adjusted by means of the thermostat (14) of the water bath to bring the temperature of the milk to 6.0° C., 7.0° C. or 12.0° C. The temperature variation in the vessel was less than ±0.1° C. The effect of nitrogen gas on the growth of the microflora in a raw milk sample at 12.0° C. Two flow-through rates of the nitrogen gas were used in the study: (▴) 40 ml/min and ([…]) 120 ml/min. […] The following bacterial levels were determined in the samples: FIG. 5A: Total bacteria count (p.m.y./ml) FIG. 5B: Total number of psychrotrophs (p.m.y./ml) FIG. 5C: Total number of proteolytic bacteria (p.m.y./ml) FIG. 5D: Total number of lipolytic bacteria (p.m.y./ml) FIG. 5E: Total number of bacteria producing phospholipase (p.m.y./ml). […]

Bacillus cereus = assay: Number of Bacillus cereus bacteria in raw milk (MYP dish) under nitrogen gas; format: cell-based; conditions: 6.0° C., N2 environment (40 ml/min), after 7 days
Method: as §1
Two flow-through rates of the nitrogen gas were used in the study; (N2) 40 ml/min and (N1) 120 ml/min.

[2] = tested on: psychrotrophic P. fluorescens strain; conditions: sterile milk, 4° C., Skura et al.; cited from earlier work
four Pseudomonas strains = conditions: 15° C., Eyles et al.; cited from earlier work
[3] = tested on: psychrotrophs in raw milk; conditions: 7° C., closed system, Dechemi et al.; cited from earlier work

## N#N [nitrogen gas]
[1]; 6° C., N1 environment (120 ml/min), adequately long treatment period, three raw milk samples
  elimination of the bacteria which produce phospholipase: possible to eliminate the bacteria which produce phospholipase
[1]; 12.0° C., N1 environment (120 ml/min), Example 4 sample
  time from beginning of nitrogen gas treatment to elimination of microbes which produce phospholipase: ≤ 96 h
[1]; 12.0° C., N1 environment (120 ml/min), Examples 4 and 5, FIG. 5E
  growth of the aerobic bacteria which secrete phospholipase: total prevention of growth
[1]; 12.0° C., N2 environment (40 ml/min), Example 4 sample
  growth of the number of the microbes which produce phospholipase: ceases in the N2 environment after 3 days
[1]; 12.0° C., N2 environment (40 ml/min), after 2 days, FIG. 5E
  growth of the aerobic bacteria which secrete phospholipase: total prevention of growth
[1]; at 7° C.
  growth-preventing effect on phospholipase-positive bacteria: impossible to detect this effect
[1]; at 12° C.
  growth-preventing effect on phospholipase-positive bacteria: the effect of the nitrogen gas was obvious
Anaerobic microbes
  growth of anaerobic microbes: able to delay the growth
Bacillus cereus
  elimination of bacteria of the B. cereus type from raw milk: adequate for eliminating the bacteria of the B. cereus type
[2]
  growth of P. fluorescens strain versus control culture in normal air: grew slower
  proteolytic activity of the strain: very low compared with that of the control culture
Four Pseudomonas strains
  inhibition of Pseudomonas strains: did not establish that pure nitrogen is capable of significantly inhibiting
[3]
  effect of inhibiting the protease activity, among the gas alternatives tested: neither the best nor the worst one
  preventing the growth of the microbes and inhibiting the lipase activity, among the protecting gases used: least effective
